Source: patent publication US10577322B2, “5-methoxytryptophan and its derivatives and uses thereof” (National Health Research Institutes, priority 2015, dated 2020)

Key:
p300 HAT = p300 HAT activity in lung tissues of mice; assay type: in vivo; details: 8-24 h after LPS, 5-MTP 23.4 mg/kg
Experimental: In addition, p300 HAT activity in lung tissues of mice (n=6 mice/group) at 8-24 h after LPS infusion with or without 5-MTP(23.4 mg/kg) was determined by an assay kit.

[1] = test system: proinflammatory cytokines; assay: Proinflammatory cytokines level in serum of LPS-treated mice (ELISA); assay type: in vivo
Experimental: C57BL/6 mice (6-8 wks old) were treated intraperitoneally with saline or with different concentrations of 5-MTP (23.4 or 100 mg/kg) for 30 min before intraperitoneal administration of LPS (60 mg/kg). Animals were monitored for survival and other clinical signs including ruffled fur, lethargy, diarrhea, and body weight loss. Some animals were sacrificed at different times after LPS injection. Blood samples, peritoneal exudates, lungs, and spleens were collected. All mouse experiments were approved by the institutional Animal Care and Use Committee, National Health Research Institutes.
Cytokine levels in the culture supernatants and serum were determined in microtiter plates (96-well) by a specific sandwich ELISA (Biosource) as previously described (Wu, J. Y. & Kuo, C. C. Pivotal role of ADP-ribosylation factor 6 in Toll-like receptor 9-mediated immune signaling. J Biol Chem 287, 4323-4334 (2012)) (Lee, G. L., et al. TLR 2 induces vascular smooth muscle cell migration through cAMP response element-binding protein-mediated interleukin-6 production. Arterioscler Thromb Vasc Biol 32, 2751-2760 (2012); hereinafter, Lee, G. L., et al.).
Mice were injected intraperitoneally with or without different concentrations of 5-MTP or saline for 30 min, followed by LPS administration for the indicated time. Proinflammatory cytokines level in serum was measured by ELISA. (n=6 per group).

CLP = assay: Cecal ligation and puncture (CLP) model, survival; assay type: in vivo, mice
Excerpt: To confirm the protective effect of 5-MTP in endotoxemia, we used cecal ligation and puncture (CLP) model in mice. 5-MTP-afforded protection was also observed in mice challenged with CLP.

[2] = Serum 5-MTP level in mice after 5-MTP administration; assay type: in vivo; details: 5-MTP 23.4 mg/kg
Experimental: To ensure that 5-MTP administration increases serum 5-MTP, we analyzed 5-MTP level at 24 h and 72 h after 5-MTP infusion. Serum 5-MTP concentrations in mice treated with saline or LPS with or without 5-MTP (23.4 mg/kg) at 24 h and 72 h. The error bars denote mean±SD (n=3).

COX-2 [3] = assay: LPS-induced COX-2 protein expression in RAW264.7 cells (immunoblot); assay type: cell-based, mouse; details: LPS 8 h
Experimental: Mouse RAW264.7 macrophages were from the American Type Culture Collection and cultured in DMEM containing 10% FBS. […] The duration of LPS (100 ng/ml) treatment varied depending on the experiment.
Cellular protein were resolved by 5% to 20% SDS-PAGE and transferred to nitrocellulose membranes and blotted with specific antibodies as previously described (Lee, G. L., et al.).
After pretreating mouse macrophage RAW264.7 cells with different concentrations of 5-MTP for 30 min, cells were stimulated with LPS for 8 h. Cell lysates were immunoblotted with antibodies for COX-2 or β-actin. In addition, RAW264.7 cells were transfected with COX-2 promoter-luciferase plasmid. After 24 h transfection, the cells were incubated with LPS for 8 h. Luciferase activity was measured.

NF-κB p65 = assay: Phospho-NF-κB p65 (Ser536) in RAW264.7 cells (immunoblot); assay type: cell-based, mouse; details: LPS 4 h
Experimental: Furthermore, after pretreating RAW264.7 cells with different concentrations of 5-MTP for 30 min, cells were stimulated with. LPS for 4 h. NF-κB p65, phospho-NF-κB p65 (p-p65) (Ser536) or β-actin was determined by immunoblotting with specific antibodies. Also, peritoneal macrophages were treated with LPS with or without 5-MTP (50 μM) for the indicated time. Phospho-p65 in the lysates was analyzed by an ELISA kit. The results are shown in FIG. 10D, in which the error bars denote mean ±SD (n=3). According to FIGS. 10C-10D, 5-MTP decreased LPS-induced phosphorylation of NF-κB p65 not only in RAW264.7 cells (FIG. 10C) but also in peritoneal macrophages (FIG. 10D).

COX-2 [4] = assay: COX-2 immunohistochemistry in lung tissues of LPS-treated mice; assay type: in vivo; details: LPS 60 mg/kg; 12 h, 16 h and 24 h
Experimental: Prior to immunohistochemical detection of COX-2, iNOS, Ly6g, or cleaved caspase-3 in lung sections, sections were deparaffinized with xylene, progressively rehydrated through graded alcohols. Antigen sites were retrieved by heating the sections on slides in pH 8 EDTA antigen. retrieval (Trilogy; Cell Marque Corporation) in electric pressure cooker for 15 min. […] All antibodies described hereafter were diluted in blocking buffer. Sections were incubated at room temperature for 2 h with primary antibody and then washed in PBST. The sections were incubated with primary antibody amplifier quanta (Thermo) for 10 minutes. After rinsing with PBST, the sections were incubated with HRP Polymer Quanto (Thermo) for 10 minutes and washed three times with PBST. COX-2, iNOS, Ly6g and cleaved caspase-3 were visualized by the addition of DAB Quanto Chromogen: Substrate for 3 minutes. Tissues were also counterstained with hematoxylin.
Moreover, paraffin-embedded sections were prepared from lungs of mice injected with 60 mg/kg LPS with or without saline or 5-MTP at 12 h, 16 h and 24 h. COX-2 and inducible nitric oxide synthase (iNOS) protein levels in lung tissues were determined by immunohistochemistry by staining with anti-COX-2 and anti-iNOS antibodies, respectively. The results are shown in FIGS. 6A-6B, in which scale bars represent 100 μm. […]

[5] = LPS-treated mice, dose- and time-dependent

COc1ccc2[nH]cc(C[C@H](N)C(=O)O)c2c1 [5-MTP, 5-methoxytryptophan]
p300 HAT activity in lung tissues (p300 HAT): suppressed by 5-MTP
all the tested serum cytokines ([1]; 5-MTP at 23.4 mg/kg): significantly reduced
all the tested serum cytokines ([1]; 5-MTP at 100 mg/kg): reduced the cytokines to the basal level
rise of IL-12 ([1]; LPS-treated mice, data not shown): suppressed the rise
blood level of IL-1β [1, 5]: abated the elevation
blood level of IL-6 [1, 5]: abated the elevation
blood level of INF-κ [1, 5]: abated the elevation
blood level of TNF-α [1, 5]: abated the elevation
duration of improved survival (CLP): maintained up to day 6
survival at day 2 (CLP; 5-MTP 30 mins after surgery): 44.4%
serum 5-MTP level at 24 h after administration [2]: several-fold over the basal level
serum 5-MTP level at 72 h [2]: returned to basal level
LPS-induced COX-2 protein expression (COX-2 [3]): blocked
LPS-induced phosphorylation of NF-κB p65 (NF-κB p65): decreased
COX-2 expression in lung tissues (COX-2 [4]): suppresses
